# Measurements reported in US4313946A, “Chemotherapeutically active maytansinoids from Trewia nudiflora” (priority 1981, dated 1982).
# Entries after “also recorded” stand apart in the source; their conditions may differ.
# Experiments:
# [1] = tested on: lymphocytic leukemia P388; details: Wani et al. 1973; cited from earlier work
# [2] = tested on: lymphocytic leukemia P388; test: PS system against lymphocytic leukemia P388 in mice (NCI Protocol 1.200); assay type: in vivo; details: i.p. once a day for 9 days
# Method: Another indication of fraction activity is the effectiveness in the PS system against lymphocytic leukemia P388 in mice. These assays are conducted according to the NCI Protocol 1.200 described in Geran et al., supra. Starting 24 hours after the tumor implantation, previously determined doses of each compound were injected intraperitoneally once a day for 9 days. Survival time of treated leukemic mice is compared to that of untreated mice (T/C×100). A T/C value of 100% indicates no activity. A T/C value greater than 100% means that the treated mice are surviving longer than the control mice. A compound giving a T/C value greater than 125% is indicative of activity as defined by the NCI Protocols, above.
# [3] = tested on: cultivated cells of human epidermoid carcinoma of the mouth (KB); test: KB Cell Culture Screen (NCI Protocol 1.600); assay type: cell-based; details: for IC50: Homo sapiens, KB, 72 h, 3 days after drug addition, activity indicated for ED50 ≤30 μg./ml., read-out: ED50 (dose that inhibits growth to 50% of control growth)
# Method: The KB Cell Culture Screen used in guiding the above-described fractionations was conducted in accordance with the National Cancer Institute (NCI) Protocol 1.600 [Geran et al., Cancer Chemother. Rep., Part 3, 3:17 (1972)] in which the effectiveness of the test compounds against cultivated cells of human epidermoid carcinoma of the mouth was evaluated. The results of this procedure are expressed as the dose that inhibits growth to 50% of control growth by 3 days after drug addition. Such a dose is referred to as ED50 and activity is indicated for ED50 levels of ≤30 μg./ml. The smaller the ED50 level, the more cytotoxic the test material. The activities of the crystallized compounds isolated above are reported below in Table III.
# B16 melancarcinoma = test: B1 system against B16 melancarcinoma in mice (NCI Protocol 1.300); assay type: in vivo; details: i.p. once a day for 9 days, vehicle Klucel, male B6C3F1 mice
# Method: Trewiasine was also evaluated in the B1 system against B16 melancarcinoma in mice. This assay is conducted in accordance with the NCI Protocol 1.300 described in Geran et al., supra. Starting 24 hours after the tumor implantation, predetermined doses of the compound were injected intraperitoneally once a day for 9 days. The results are reported in Table V below as the percent T/C.
smiles,measurement,setting,value
COc1cc2cc(c1Cl)N(C)C(=O)CC(OC(=O)C(C)N(C)C(=O)C(C)C)C1(C)OC1C(C)C1CC(O)(NC(=O)O1)C(OC)C=CC=C(C)C2OC(C)=O (stereo not drawn) [colubrinol acetate],activity against lymphocytic leukemia P388,[1],activity against lymphocytic leukemia P388 at the microgram per kilogram level
COc1cc2cc(c1Cl)N(C)C(=O)CC(OC(=O)C(C)N(C)C(=O)C(C)C)C1(C)OC1C(C)C1CC(O)(NC(=O)O1)C(OC)C=CC=C(C)C2O (stereo not drawn) [colubrinol],activity against lymphocytic leukemia P388,[1],activity against lymphocytic leukemia P388 at the microgram per kilogram level
C=C(C)C(=O)N(C)C(C)C(=O)OC1CC(=O)N(C)c2cc(cc(OC)c2Cl)C(OC)C(C)=CC=CC(OC)C2(O)CC(OC(=O)N2)C(C)C2OC12C (stereo not drawn) [dehydrotrewiasine],T/C,"[2]; 4.00 μg./kg./inj., vehicle biological saline, male CDF1 mice",120%
same,T/C,"[2]; 8.00 μg./kg./inj., vehicle biological saline, male CDF1 mice",127%
same,T/C,"[2]; 16.00 μg./kg./inj., vehicle biological saline, male CDF1 mice",120%
same,T/C,"[2]; 32.00 μg./kg./inj., vehicle biological saline, male CDF1 mice",145%
same,IC50,[3],< 10 ng/mL
COc1cc2cc(c1Cl)N(C)C(=O)CC(OC(=O)C(C)NC(=O)C(C)C)C1(C)OC1C(C)C1CC(O)(NC(=O)O1)C(OC)C=CC=C(C)C2OC (stereo not drawn) [demethyltrewiasine],IC50,[3],< 10 ng/mL
"COc1cc2cc(c1Cl)N(C)C(=O)CC(OC(=O)C(C)N(C)C(=O)C(C)C)C1(C)OC1C(C)C1CC(O)(NC(=O)O1)C(OC)C=CC=C(C)C2OC (stereo not drawn) [trewiasine, 15-methoxymaytanbutine]",T/C,"[2]; 4.00 μg./kg./inj., vehicle Klucel, female CDF1 mice",163%
same,T/C,"[2]; 8.00 μg./kg./inj., vehicle Klucel, female CDF1 mice",140%
same,T/C,"[2]; 16.00 μg./kg./inj., vehicle Klucel, female CDF1 mice",154%
same,T/C,"[2]; 32.00 μg./kg./inj., vehicle Klucel, female CDF1 mice",128%
same,T/C,"[2]; 64.00 μg./kg./inj., vehicle Klucel, female CDF1 mice",91%
same,T/C,B16 melancarcinoma; 1.00 μg./kg./inj.,133%
same,T/C,B16 melancarcinoma; 2.00 μg./kg./inj.,140%
same,T/C,B16 melancarcinoma; 4.00 μg./kg./inj.,157%
same,T/C,B16 melancarcinoma; 8.00 μg./kg./inj.,185%
same,T/C,B16 melancarcinoma; 16.00 μg./kg./inj.,172%
same,T/C,B16 melancarcinoma; 32.00 μg./kg./inj.,183%
same,IC50,[3],0.2 ng/mL
same,cytotoxicity relative to that reported by Kupchan for other maytansinoids,"[3]; KB system, compared with maytansine, maytanbutine and similar compounds",one or more orders of magnitude less; also recorded: at least one order of magnitude less
